Assay results taken from US10336792B2, “Antimicrobial peptide dendrimers” (priority 2014, dated 2019).
In brackets after ≈: the same amount, converted by molar mass. Positions of bridges follow the written chain, without caps; N, C: chain ends. Non-standard residues stand in square brackets, D forms with d. Residues, ends and D or L forms follow the SMILES beside them. Groups on a side chain read outwards from the residue. Chains are numbered I, II in the order given. *: point of attachment. Lauroyl = CCCCCCCCCCCC(=O)*

Tests used:
[1] = tested on: Pseudomonas aeruginosa (strain PA01); assay: microbe, parasite or virus in culture; assay type: cell-based; conditions: strain
How it was run: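 P. aeruginosa PAO1 grown overnight in LB, diluted to OD600 0.001 and mixed with ⅔-step peptide dilutions, then incubated at 37 °C for 18–24 h. After MTT staining, the lowest concentration with no visible growth was read by eye as the MIC.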

[2] = tested on: Bacillus subtilis (strain BR151); assay type: cell-based; conditions: strain BR151
How it was run: (§1)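 Broth microdilution MIC in LB; overnight cultures diluted to OD600 0.001 and mixed 1:1 with ⅔-serially diluted samples (stock 1 mg mL^−1 in H2O), 37° C for 18-24 h. MTT (0.1%) added; MIC read by eye as lowest concentration inhibiting visible growth (yellow).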

[3] = tested on: male wistar rats; assay: In-vivo toxicity study, single i.v. injection; design: species or system rat; conditions: for visible effects and behaviour after injection: 2 mg/kg single i.v. dose into tail vein, two rats; for survival rate: 2 mg/kg single i.v. dose, monitored 2 days
From the text: 4-6 weeks old male wistar rats (weight range 200-500 g) were used in toxicity experiments. Rats were obtained from Zentrale Tierställe Bern (Department of Clinical Research from University of Bern) and housed 4 per cage. Each experimental group includes two rats. All procedures, care and handling of the animals were reviewed and approved by the Veterinärdienst of Kanton Bern, Schweiz and execute in collaboration with the group of Prof. Hugues Abriel from Department of Clinical Research from University of Bern.
Rats were anesthetized with 4% isoflurane and 1 L/min oxygen in an induction chamber. When the rats were sleeping they were transferred on a clinical drape and anesthetized with 1-2% isoflurane and 0.8 l/min oxygen via a mask. The tail was warmed up with warm water and disinfected with 70% ethanol. The intravenous (i.v.) injections into the tail vein included a single dose of the AMPD of 2 mg/kg rat in 500 μL PBS. Before injection each rat was weighted individually and the exact dosage was determined. All rats, including control groups with no injection and i.v. injection of 500 μL PBS, were monitored for their survival and behavior for two days.
The compounds MSt-112, a 3rd generation AMPD with KL motive, MSt-181 its D-enantiomer analogue, MSt-242, a the 3rd generation with RL motive, and MSt-114 with Tyr instead of Lys in the 3rd generation were used for in vivo experiments with male wistar rats to assess their toxicity. These compounds were selected due to their high potencies and high MHCs values, which are at least 10 times higher than their activities. Each compound (concentration of 2 mg/kg) was applied to two rats by intravenous injection into the tail vein to observe if the AMPDs are well tolerated or may cause adverse effects. The concentration used was approx. 5-10 times higher than the MICs. […] The behaviour of the rats was normal. […] Therefore it seems that rats tolerate AMPDs very well, without visible site effects or even casualties.

[4] = tested on: Escherichia coli (strain DH5α); assay type: cell-based; conditions: DH5α
How it was run: as §1

[5] = tested on: P. aeruginosa PEJ2.6, PEJ9.1, ZEM1.A, ZEM9.A (clinical isolates); assay type: cell-based, Pseudomonas aeruginosa; conditions: PEJ2.6, PEJ9.1, ZEM1.A, ZEM9.A (clinical isolates)
Method: (§2) Antimicrobial activity was assayed against P. aeruginosa PA01 (WT), P. aeruginosa PT1482 (A-), PT1485 (A-B-), PT1149 (A-B-C-algC), PT331 (Z61) (LPS mutants), P. aeruginosa PEJ2.6, PEJ9.1, ZEM1.A, ZEM9.A (clinical isolates from Université de Genève/Centre Médical Universitaire), Burkholderia cenocepacia (B. ceno), Staphylococcus aureus (S. aureus, MRSA strain) and Acinetobacter baumannii (A. baum) (clinical isolates from Université de Genève/Centre Médical Universitaire). To determine the minimal inhibitory concentration (MIC), microdilution broth method was used. A colony of bacteria was grown in MH-medium overnight at 37° C. The samples were prepared as stock solutions of 8 mg mL^−1 in H2O, diluted to the beginning concentration of 32, 64, 128 or 256 μg/mL in 300 μL MH-medium, added to the first well of 96-well microtiterplate (TPP, untreated) and diluted serially by ½. The concentration of the bacteria was quantified by measuring absorbance at 600 nm and diluted to OD600=0.022 in MH-medium. The sample solutions (150 μL) were mixed with 4 μL diluted bacterial suspension with a final inoculation of about of 5×10^5 CFU. The plates were incubated at 37° C. until satisfactory growth (˜18 h). For each test, two columns of the plate were kept for sterility control (SC, broth only) and growth control (GC, broth with bacterial inoculums, no antibiotics). The minimal inhibitory concentration (MIC) was defined as the lowest concentration of the antimicrobial substance (peptide dendrimer) that inhibited visible growth of the tested bacteria with the unaided eye. For microbiological study Polymyxin was used as references.
(§3) Ten of the most promising compounds (FIG. 5) were tested for their efficiency against four clinical isolates of P. aeruginosa (ZEM9.A, ZEM1.A, PEJ2.6, PEJ9.1), one S. aureus (COL, MRSA reference strain) and one A. baumannii strain. For the experiments in Genève the peptide dendrimers and reference compounds (polymyxin) were dissolved in PBS and the assay was carried out in Müller-Hinton (MH) broth with a two-fold dilution.

[6] = tested on: Staphylococcus aureus (COL, MRSA reference strain); assay type: cell-based; conditions: COL, reference strain
Method: as §2, §3

Row | SMILES | MIC P. aeruginosa PAO1 [1] | MIC B. subtilis BR151 [2] | visible effects and behaviour after injection [3] | survival rate [3] | MIC E. coli DH5α [4] | MIC P. aeruginosa ZEM9.A [5] | MIC S. aureus (COL, MRSA reference strain) [6]
1 | CC(C)C[C@H](NC(=O)[C@H](CCCCN)NC(=O)[C@H](CCCCNC(=O)[C@H](CC(C)C)NC(=O)[C@H](CCCCN)NC(=O)[C@H](CCCCNC(=O)[C@H](CC(C)C)NC(=O)[C@H](CCCCN)NC(=O)[C@H](CCCCNC(=O)[C@H](Cc1ccc(O)cc1)NC(=O)[C@@H](N)CCCCN)NC(=O)[C@H](Cc1ccc(O)cc1)NC(=O)[C@@H](N)CCCCN)NC(=O)[C@H](CC(C)C)NC(=O)[C@H](CCCCN)NC(=O)[C@H](CCCCNC(=O)[C@H](Cc1ccc(O)cc1)NC(=O)[C@@H](N)CCCCN)NC(=O)[C@H](Cc1ccc(O)cc1)NC(=O)[C@@H](N)CCCCN)NC(=O)[C@H](CC(C)C)NC(=O)[C@H](CCCCN)NC(=O)[C@H](CCCCNC(=O)[C@H](CC(C)C)NC(=O)[C@H](CCCCN)NC(=O)[C@H](CCCCNC(=O)[C@H](Cc1ccc(O)cc1)NC(=O)[C@@H](N)CCCCN)NC(=O)[C@H](Cc1ccc(O)cc1)NC(=O)[C@@H](N)CCCCN)NC(=O)[C@H](CC(C)C)NC(=O)[C@H](CCCCN)NC(=O)[C@H](CCCCNC(=O)[C@H](Cc1ccc(O)cc1)NC(=O)[C@@H](N)CCCCN)NC(=O)[C@H](Cc1ccc(O)cc1)NC(=O)[C@@H](N)CCCCN)C(N)=O [MSt-114, (KY)8(KKL)4(KKL)2(KKL)] (I: H-KYK([Tyr-Lys])KLKKLKKL-NH2 / II: H-KYK([Tyr-Lys])KLKKL / III: H-KYK([Tyr-Lys])KL / IV: H-KYK([Tyr-Lys])KL; amide I:6-IV:C, I:9-II:C, II:6-III:C) | 2 µg/mL (≈ 0.405 µM) | 13 µg/mL (≈ 2.63 µM) | slightly bluish extremities which subsided after approx. 5 min | 100% |  |  | 
2 | CC(C)C[C@@H](NC(=O)[C@@H](CCCCN)NC(=O)[C@@H](CCCCNC(=O)[C@@H](CC(C)C)NC(=O)[C@@H](CCCCN)NC(=O)[C@@H](CCCCNC(=O)[C@@H](CC(C)C)NC(=O)[C@@H](CCCCN)NC(=O)[C@@H](CCCCNC(=O)[C@@H](CC(C)C)NC(=O)[C@H](N)CCCCN)NC(=O)[C@@H](CC(C)C)NC(=O)[C@H](N)CCCCN)NC(=O)[C@@H](CC(C)C)NC(=O)[C@@H](CCCCN)NC(=O)[C@@H](CCCCNC(=O)[C@@H](CC(C)C)NC(=O)[C@H](N)CCCCN)NC(=O)[C@@H](CC(C)C)NC(=O)[C@H](N)CCCCN)NC(=O)[C@@H](CC(C)C)NC(=O)[C@@H](CCCCN)NC(=O)[C@@H](CCCCNC(=O)[C@@H](CC(C)C)NC(=O)[C@@H](CCCCN)NC(=O)[C@@H](CCCCNC(=O)[C@@H](CC(C)C)NC(=O)[C@H](N)CCCCN)NC(=O)[C@@H](CC(C)C)NC(=O)[C@H](N)CCCCN)NC(=O)[C@@H](CC(C)C)NC(=O)[C@@H](CCCCN)NC(=O)[C@@H](CCCCNC(=O)[C@@H](CC(C)C)NC(=O)[C@H](N)CCCCN)NC(=O)[C@@H](CC(C)C)NC(=O)[C@H](N)CCCCN)C(N)=O [MSt-181, (kl)8(kkl)4(kkl)2(kkl)] (I: H-[dK][dL][dK]([dL-dK])[dK][dL][dK][dK][dL][dK][dK][dL]-NH2 / II: H-[dK][dL][dK]([dL-dK])[dK][dL][dK][dK][dL] / III: H-[dK][dL][dK]([dL-dK])[dK][dL] / IV: H-[dK][dL][dK]([dL-dK])[dK][dL]; amide I:6-IV:C, I:9-II:C, II:6-III:C) | 4 µg/mL (≈ 0.882 µM) | 2 µg/mL (≈ 0.441 µM) | slightly bluish extremities which subsided after approx. 5 min | 100% | 1 µg/mL (≈ 0.221 µM) |  | 
3 | CC(C)C[C@H](NC(=O)[C@H](CCCNC(=N)N)NC(=O)[C@H](CCCCNC(=O)[C@H](CC(C)C)NC(=O)[C@H](CCCNC(=N)N)NC(=O)[C@H](CCCCNC(=O)[C@H](CC(C)C)NC(=O)[C@H](CCCNC(=N)N)NC(=O)[C@H](CCCCNC(=O)[C@H](CC(C)C)NC(=O)[C@@H](N)CCCNC(=N)N)NC(=O)[C@H](CC(C)C)NC(=O)[C@@H](N)CCCNC(=N)N)NC(=O)[C@H](CC(C)C)NC(=O)[C@H](CCCNC(=N)N)NC(=O)[C@H](CCCCNC(=O)[C@H](CC(C)C)NC(=O)[C@@H](N)CCCNC(=N)N)NC(=O)[C@H](CC(C)C)NC(=O)[C@@H](N)CCCNC(=N)N)NC(=O)[C@H](CC(C)C)NC(=O)[C@H](CCCNC(=N)N)NC(=O)[C@H](CCCCNC(=O)[C@H](CC(C)C)NC(=O)[C@H](CCCNC(=N)N)NC(=O)[C@H](CCCCNC(=O)[C@H](CC(C)C)NC(=O)[C@@H](N)CCCNC(=N)N)NC(=O)[C@H](CC(C)C)NC(=O)[C@@H](N)CCCNC(=N)N)NC(=O)[C@H](CC(C)C)NC(=O)[C@H](CCCNC(=N)N)NC(=O)[C@H](CCCCNC(=O)[C@H](CC(C)C)NC(=O)[C@@H](N)CCCNC(=N)N)NC(=O)[C@H](CC(C)C)NC(=O)[C@@H](N)CCCNC(=N)N)C(N)=O [MSt-242, (RL)8(KRL)4(KRL)2(KRL)] (I: H-RLK([Leu-Arg])RLKRLKRL-NH2 / II: H-RLK([Leu-Arg])RLKRL / III: H-RLK([Leu-Arg])RL / IV: H-RLK([Leu-Arg])RL; amide I:6-IV:C, I:9-II:C, II:6-III:C) | 8 µg/mL (≈ 1.61 µM) | 11 µg/mL (≈ 2.22 µM) | No visible effect | 100% | 3 µg/mL (≈ 0.606 µM) | > 20 µg/mL | below 20 μg/mL
4 | CCCCCCCCCCCC(=O)NCCCC[C@H](NC(=O)[C@H](CC(C)C)NC(=O)[C@H](CCCCN)NC(=O)[C@H](CCCCNC(=O)[C@H](CC(C)C)NC(=O)[C@H](CCCCN)NC(=O)[C@H](CCCCNC(=O)[C@H](CC(C)C)NC(=O)[C@@H](N)CCCCN)NC(=O)[C@H](CC(C)C)NC(=O)[C@@H](N)CCCCN)NC(=O)[C@H](CC(C)C)NC(=O)[C@H](CCCCN)NC(=O)[C@H](CCCCNC(=O)[C@H](CC(C)C)NC(=O)[C@@H](N)CCCCN)NC(=O)[C@H](CC(C)C)NC(=O)[C@@H](N)CCCCN)C(N)=O [MSt-263, (KL)4(KKL)2(KKLKC12)] (I: H-KLK([Leu-Lys])KLKKLK(Lauroyl)-NH2 / II: H-KLK([Leu-Lys])KL; amide I:6-II:C) | 1 µg/mL (≈ 0.416 µM) | 2 µg/mL (≈ 0.833 µM) |  |  | 1 µg/mL (≈ 0.416 µM) |  | below 20 μg/mL
